The subject of the data set is V. radiata. Conditions: AgNO3 0-2 mM bolus doses, day 4 to day 8.

Method: For two days beans were allowed to germinate in the dark at 20° C. as described above. On day 3, the plate was incubated at 20° C./12 hr photoperiod and 100% humidity, and 500 μL of distilled water were added to each well. On day 5 another 750 μL of distilled water were added and the cover of the well plate was removed. The EC50 was determined as the concentration at which the change in mass of the seedling was half that of untreated V. radiata.

As to `O=[N+]([O-])[O-].[Ag+]` [AgNO3, silver nitrate], the “change in mass of V. radiata” value is on record as “decreased significantly in a dose response fashion”.
